According to paper PMC6768063 (Journal of computer-aided molecular design, 2019):

Columns and labels:
[1] = target: T1, D2 receptor (Homo sapiens, UniProt P14416); details: cited from earlier work
[2] = target: T1, D2 receptor; experiment: calcium flux assay; format: cell-based; details: for EC50: read-out: EC50, agonist effect (calcium flux), D2/CHO-K1 cells, agonist mode
[3] = target: T2, D1 receptor (Homo sapiens, UniProt P21728); experiment: cAMP assay; format: cell-based; details: for EC50: read-out: EC50, agonist effect (cAMP production), CHO-K1/D1 cells, agonist mode
T2 sequence (P21728 whole entry): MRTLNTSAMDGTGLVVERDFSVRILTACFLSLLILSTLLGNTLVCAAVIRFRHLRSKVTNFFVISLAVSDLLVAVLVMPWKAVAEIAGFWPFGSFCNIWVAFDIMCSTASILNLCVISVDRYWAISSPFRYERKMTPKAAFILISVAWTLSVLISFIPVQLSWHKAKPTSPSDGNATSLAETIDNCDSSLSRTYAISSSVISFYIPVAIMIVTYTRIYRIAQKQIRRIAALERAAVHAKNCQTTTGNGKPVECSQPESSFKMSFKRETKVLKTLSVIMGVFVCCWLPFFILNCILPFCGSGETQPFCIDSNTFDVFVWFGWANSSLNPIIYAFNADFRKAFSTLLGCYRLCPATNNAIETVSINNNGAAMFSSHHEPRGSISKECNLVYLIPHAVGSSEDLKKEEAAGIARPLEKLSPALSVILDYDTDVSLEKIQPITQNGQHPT

[4] = target: T1, D2 receptor; details: cited from earlier work; remark: listed apart in the source
[5] = target: T2, D1 receptor; details: cited from earlier work
[6] = tested on: 5-HT1A receptor; details: cited from earlier work
[7] = tested on: D3 receptor; details: cited from earlier work

T1 sequence (P14416 whole entry): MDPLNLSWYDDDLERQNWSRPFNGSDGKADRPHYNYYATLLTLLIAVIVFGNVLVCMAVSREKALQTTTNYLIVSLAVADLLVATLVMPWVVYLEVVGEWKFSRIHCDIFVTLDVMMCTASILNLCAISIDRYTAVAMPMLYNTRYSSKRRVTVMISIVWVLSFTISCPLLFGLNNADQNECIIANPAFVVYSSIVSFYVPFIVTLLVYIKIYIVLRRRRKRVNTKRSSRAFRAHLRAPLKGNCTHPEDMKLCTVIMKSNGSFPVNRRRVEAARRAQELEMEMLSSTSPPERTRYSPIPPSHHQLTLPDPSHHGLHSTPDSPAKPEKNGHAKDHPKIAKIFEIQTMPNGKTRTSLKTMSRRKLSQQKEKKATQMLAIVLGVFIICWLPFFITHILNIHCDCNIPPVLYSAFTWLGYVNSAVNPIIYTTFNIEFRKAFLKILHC

COc1cc2c(cc1OC)[C@@H]1Cc3ccc(OC)c(OC)c3CN1CC2 [l-THP, l-tetrahydropalmatine]
binding affinity for the D2 receptor (in words) [1]: high binding affinity

CN1CCc2cc(Cl)c(O)cc2[C@@H](c2ccccc2)C1 [SCH23390, reference compound]
IC50 [2]: 4.06 µM

COc1ccc2c(c1O)CN1CCc3cc4c(cc3C1C2)OCO4 (stereo not drawn) [d-TU, Tetrahydroberberrubine]
affinity against D1 receptor (in words) ([3]; based on the cAMP assay): no affinity
EC50 [3]: > 10 µM
affinity against D2 receptor (in words) ([2]; based on the calcium flux assay): no affinity
EC50 [2]: > 10 µM

COc1ccc2c(c1O)CN1CCc3cc4c(cc3C1C2)OCO4 (stereo not drawn) [l-TU, Tetrahydroberberrubine]
binding affinity for D2 receptor (in words) [4]: high binding affinities
EC50 [3]: > 10 µM
binding affinity for D1 receptor (in words) [5]: high binding affinities
binding affinity for 5-HT1A receptor (in words) [6]: high binding affinities
binding affinity for D3 receptor (in words) [7]: high binding affinities
EC50 [2]: > 10 µM

COc1cc2c(cc1OC)[C@H]1Cc3ccc(OC)c(OC)c3CN1CC2 [d-THP]
binding affinity for the D2 receptor (in words) [1]: low or absent affinity
